# Measured values reported in patent publication US8846719B2, “Isoxazolo-pyridine derivatives” (Roche Palo Alto LLC, priority 2007, dated 2014).
# pKi: −log10 of the molar value.
# Biological target: human GABA A receptor α5β3γ2 (Homo sapiens (Human), UniProt P18507+P31644)
# Test: [3H]flumazenil competition binding assay, human GABA A α5β3γ2 receptors expressed in HEK293 cells
# Settings: human receptor; displacement of [3H]flumazenil (0.5 nM); means of two determinations; read-out: hKi GABAAa5
# Protocol: The affinity of compounds at GABA A receptor subtypes was measured by competition for [3H]flumazenil (85 Ci/mmol; Roche) binding to HEK293 cells expressing rat (stably transfected) or human (transiently transfected) receptors of composition α1β3γ2, α2β3γ2, α3β3γ2 and α5β3γ2.
# Cell pellets were suspended in Krebs-tris buffer (4.8 mM KCl, 1.2 mM CaCl2, 1.2 mM MgCl2, 120 mM NaCl, 15 mM Tris; pH 7.5; binding assay buffer), homogenized by polytron for ca. 20 sec on ice and centrifuged for 60 min at 4° C. (50000 g; Sorvall, rotor: SM24=20000 rpm). The cell pellets were resuspended in Krebs-tris buffer and homogenized by polytron for ca. 15 sec on ice. Protein was measured (Bradford method, Bio-Rad) and aliquots of 1 mL were prepared and stored at −80° C.
# Assays were incubated to equilibrium for 1 hour at 4° C. and harvested onto GF/C uni-filters (Packard) by filtration using a Packard harvester and washing with ice-cold wash buffer (50 mM Tris; pH 7.5). After drying, filter-retained radioactivity was detected by liquid scintillation counting. Ki values were calculated using Excel-Fit (Microsoft) and are the means of two determinations.
row,pKi,SMILES
1,9.15,"Cc1onc(-c2ccc(Cl)cc2)c1COc1ccc(C(=O)N[C@@H]2CCC[C@H]2O)cn1 (single isomer, unassigned) [Example 259, 6-[3-(4-Chloro-phenyl)-5-methyl-isoxazol-4-ylmethoxy]-N-((1R,2R)-2-hydroxy-cyclopentyl)-nicotinamide or 6-[3-(4-chloro-phenyl)-5-methyl-isoxazol-4-ylmethoxy]-N-((1S,2S)-2-hydroxy-cyclopentyl)-nicotinamide]"
2,8.32,"Cc1onc(-c2ccccc2)c1COc1ccc(C(=O)N[C@@H]2CCCC[C@@H]2O)cn1 (single isomer, unassigned) [Example 203, N-((1R,2S)-2-Hydroxy-cyclohexyl)-6-(5-methyl-3-phenyl-isoxazol-4-ylmethoxy)-nicotinamide or N-((1S,2R)-2-Hydroxy-cyclohexyl)-6-(5-methyl-3-phenyl-isoxazol-4-ylmethoxy)-nicotinamide]"
3,8.51,"Cc1cccc(-c2noc(C)c2COc2ccc(C(=O)NC(C)C)cn2)c1 [Example 250, N-Isopropyl-6-(5-methyl-3-m-tolyl-isoxazol-4-ylmethoxy)-nicotinamide]"
4,7.58,"Cc1onc(-c2ccccc2)c1COc1ccc(C(=O)N2CCC(O)C2)cn1 (stereo not drawn) [Example 223, (3-Hydroxy-pyrrolidin-1-yl)-[6-(5-methyl-3-phenyl-isoxazol-4-ylmethoxy)-pyridin-3-yl]-methanone]"
5,7.64,"Cc1onc(-c2ccccc2)c1COc1ccc(C(=O)N2CCS(=O)(=O)CC2)cn1 [Example 55, (1,1-Dioxo-1,6-thiomorpholin-4-yl)-[6-(5-methyl-3-phenyl-isoxazol-4-ylmethoxy)-pyridin-3-yl]-methanone]"
6,8.55,"Cc1onc(-c2ccccc2)c1COc1ccc(C(=O)NC2CCC2)cn1 [Example 28, N-Cyclobutyl-6-(5-methyl-3-phenyl-isoxazol-4-ylmethoxy)-nicotinamide]"
7,9.22,"Cc1onc(-c2ccc(Cl)cn2)c1COc1ccc(C(=O)N2CCS(=O)(=O)CC2)cn1 [Example 307, {6-[3-(5-Chloro-pyridin-2-yl)-5-methyl-isoxazol-4-ylmethoxy]-pyridin-3-yl}-(1,1-dioxo-1,6-thiomorpholin-4-yl)-methanone]"
8,7.53,"Cc1onc(-c2cccnc2)c1COc1ccc(C(=O)NCC2CC2)cn1 [Example 156, N-Cyclopropylmethyl-6-(5-methyl-3-pyridin-3-yl-isoxazol-4-ylmethoxy)-nicotinamide]"
9,8.11,"COCCNC(=O)c1ccc(OCc2c(-c3ccccc3)noc2C)nc1 [Example 184, N-(2-Methoxy-ethyl)-6-(5-methyl-3-phenyl-isoxazol-4-ylmethoxy)-nicotinamide]"
10,8.85,"Cc1onc(-c2ccccc2)c1COc1ccc(C(=O)NC2(C)COC2)cn1 [Example 232, N-(3-Methyl-oxetan-3-yl)-6-(5-methyl-3-phenyl-isoxazol-4-ylmethoxy)-nicotinamide]"
11,8.51,"CCNC(=O)c1ccc(OCc2c(-c3ccncn3)noc2C)nc1 [Example 317, N-Ethyl-6-(5-methyl-3-pyrimidin-4-yl-isoxazol-4-ylmethoxy)-nicotinamide]"
12,7.16,"COC(=O)c1ccc(NCc2c(-c3cccc(F)c3)noc2C)nc1 [Example 167, 6-{[3-(3-Fluoro-phenyl)-5-methyl-isoxazol-4-ylmethyl]-amino}-nicotinic acid methyl ester]"
13,7.63,"Cc1onc(-c2ccccc2)c1COc1ccc(C(=O)N2CCOCC2)cn1 [Example 53, [6-(5-Methyl-3-phenyl-isoxazol-4-ylmethoxy)-pyridin-3-yl]-morpholin-4-yl-methanone]"
14,8.92,"Cc1onc(-c2ccc(F)cn2)c1COc1ccc(C(=O)N2CCS(=O)(=O)CC2)cn1 [Example 293, (1,1-Dioxo-1,6-thiomorpholin-4-yl)-{6-[3-(5-fluoro-pyridin-2-yl)-5-methyl-isoxazol-4-ylmethoxy]-pyridin-3-yl}-methanone]"
15,8.40,"CC(=O)NCCNC(=O)c1ccc(OCc2c(-c3ccccc3)noc2C)nc1 [Example 205, N-(2-Acetylamino-ethyl)-6-(5-methyl-3-phenyl-isoxazol-4-ylmethoxy)-nicotinamide]"
16,8.80,"COC(=O)c1ccc(OCc2c(-c3ccc(Cl)cn3)noc2C)nc1 [Example 300, 6-[3-(5-Chloro-pyridin-2-yl)-5-methyl-isoxazol-4-ylmethoxy]-nicotinic acid methyl ester]"
17,9.10,"Cc1onc(-c2ccc(F)cc2)c1COc1ccc(C(=O)NC2CCOCC2)cn1 [Example 109, 6-[3-(4-Fluoro-phenyl)-5-methyl-isoxazol-4-ylmethoxy]-N-(tetrahydro-pyran-4-yl)-nicotinamide]"
18,7.38,Cc1onc(-c2ccccc2)c1COc1ccc(C(=O)N2CCC[C@H]2CO)cn1 [Example 224]
19,8.12,"Cc1onc(-c2ccc(F)cc2)c1CNc1ccc(C(=O)NCC2CC2)cn1 [Example 174, N-Cyclopropylmethyl-6-{[3-(4-fluoro-phenyl)-5-methyl-isoxazol-4-ylmethyl]-amino}-nicotinamide]"
20,7.80,"COC1CN(C(=O)c2ccc(OCc3c(-c4ccccc4)noc3C)nc2)C1 [Example 241, (3-Methoxy-azetidin-1-yl)-[6-(5-methyl-3-phenyl-isoxazol-4-ylmethoxy)-pyridin-3-yl]-methanone]"
21,7.97,"Cc1onc(-c2ccccc2)c1CNc1ccc(C(=O)NC2CC2)cn1 [Example 165, N-Cyclopropyl-6-[(5-methyl-3-phenyl-isoxazol-4-ylmethyl)-amino]-nicotinamide]"
22,8.41,"Cc1onc(-c2cccc(Cl)c2)c1COc1ccc(C(=O)NC2CCOCC2)cn1 [Example 101, 6-[3-(3-Chloro-phenyl)-5-methyl-isoxazol-4-ylmethoxy]-N-(tetrahydro-pyran-4-yl)-nicotinamide]"
23,7.34,"Cc1onc(-c2cccc(F)c2)c1COc1ccc(C(=O)N2CCSCC2)cn1 [Example 95, {6-[3-(3-Fluoro-phenyl)-5-methyl-isoxazol-4-ylmethoxy]-pyridin-3-yl}-thiomorpholin-4-yl-methanone]"

row,SMILES,pKi
1,"Cc1onc(-c2ccccc2)c1COc1ccc(C(=O)NC2CCCCC2O)cn1 (stereo not drawn) [Example 192, N-(2-Hydroxy-cyclohexyl)-6-(5-methyl-3-phenyl-isoxazol-4-ylmethoxy)-nicotinamide]",8.54
2,"Cc1onc(-c2ccc(Cl)cn2)c1COc1ccc(C(=O)NC2CC2)cn1 [Example 303, 6-[3-(5-Chloro-pyridin-2-yl)-5-methyl-isoxazol-4-ylmethoxy]-cyclopropyl-nicotinamide]",9.52
3,"Cc1onc(-c2ccc(F)cc2)c1COc1ccc(C2(O)COC2)cn1 [Example 113, 3-{6-[3-(4-Fluoro-phenyl)-5-methyl-isoxazol-4-ylmethoxy]-pyridin-3-yl}-oxetan-3-ol]",7.68
4,"CC(C)(CO)NC(=O)c1ccc(OCc2conc2-c2ccc(Cl)cc2)nc1 [Example 349, 6-[3-(4-Chloro-phenyl)-isoxazol-4-ylmethoxy]-N-(2-hydroxy-1,1-dimethyl-ethyl)-nicotinamide]",7.40
5,"COC(=O)C(=O)Nc1ccc(OCc2c(-c3ccccc3)noc2C)nc1 [Example 180, N-[6-(5-Methyl-3-phenyl-isoxazol-4-ylmethoxy)-pyridin-3-yl]-oxalamic acid methyl ester]",8.14
6,"CNC(=O)c1ccc(OCc2conc2-c2ccc(F)cn2)nc1 [Example 372, 6-[3-(5-Fluoro-pyridin-2-yl)-isoxazol-4-ylmethoxy]-methyl-nicotinamide]",7.73
7,"Cc1onc(-c2ccncn2)c1COc1ccc(C(=O)NC(C)(C)CO)cn1 [Example 315, N-(2-Hydroxy-1,1-dimethyl-ethyl)-6-(5-methyl-3-pyrimidin-4-yl-isoxazol-4-ylmethoxy)-nicotinamide]",8.09
8,"Cc1onc(-c2ccc(F)cn2)c1COc1ccc(C(=O)N[C@@H](C)C(F)(F)F)cn1 [Example 299, 6-[3-(5-Fluoro-pyridin-2-yl)-5-methyl-isoxazol-4-ylmethoxy]-N—((S)-2,2,2-trifluoro-1-methyl-ethyl)-nicotinamide]",9.30
9,"Cc1onc(-c2ccccc2)c1COc1ccc(C(=O)NC(CO)CO)cn1 [Example 201, N-(2-Hydroxy-1-hydroxymethyl-ethyl)-6-(5-methyl-3-phenyl-isoxazol-4-ylmethoxy)-nicotinamide]",8.77
10,"O=C(NC1CC1)c1ccc(OCc2c(-c3ccccc3)noc2C(F)(F)F)nc1 [Example 134, N-Cyclopropyl-6-(3-phenyl-5-trifluoromethyl-isoxazol-4-ylmethoxy)-nicotinamide]",7.62
11,"Cc1onc(-c2ccccc2)c1COc1ccc(C(=O)NCc2cc(C(C)C)no2)cn1 [Example 80, N-(3-Isopropyl-isoxazol-5-ylmethyl)-6-(5-methyl-3-phenyl-isoxazol-4-ylmethoxy)-nicotinamide]",7.35
12,"CNC(=O)c1ccc(OCc2c(-c3ccc(F)cn3)noc2C)nc1 [Example 298, 6-[3-(5-Fluoro-pyridin-2-yl)-5-methyl-isoxazol-4-ylmethoxy]-methyl-nicotinamide]",9.22
13,"Cc1nc(OCc2c(-c3ccccc3)noc2C)c(Br)cc1C(=O)NC1CCOCC1 [Example 67, 5-Bromo-2-methyl-6-(5-methyl-3-phenyl-isoxazol-4-ylmethoxy)-N-(tetrahydro-pyran-4-yl)-nicotinamide]",7.33
